Assay results: article PMC4667271, “Discovery of a Novel Inhibitor of the Protein Tyrosine Phosphatase Shp2” (Scientific Reports, 2015)

How the values were obtained:
SHP1 = SHP1 (Homo sapiens, UniProt P29350); assay: in vitro PTP assay (pNPP), SHP1; format: biochemical
Method: (§1) Plasmids for expression of His-tag fusion proteins of human PTP were constructed in PET-28a by PCR subcloning techniques. The constructions contain only the PTP domain except Full-length Shp2. Full-length Shp2 containing Tyr279-to-Ala mutant was generated by PCR-based mutagenesis. All constructs were verified by DNA sequencing. PTP-His fusion proteins were expressed in Escherichia coli BL21 and lysed in the buffer (50 mM NaH2PO4, 300 mM NaCl, 250 mM imidazole, 1 mM dithiothreitol plus 5% glycerol), purified with Ni-NTA Magnetic Agarose Beads (Qiagen). The His-tag recombinant purification protocol was carried out according to the purification under native conditions of the QIAexpress System.
(§2) The assay was set in wells of 96-well plate with a final volume of 100 μl of reaction mixture containing 10 mM of NaAc-HAc, 1 mM of ethylene diamine tetraacetic acid, 1 mM of DL-dithiothreitol and 2% of dimethyl sulfoxide, pH 5.5. Activity of the enzyme was assayed by incubating recombinant PTP protein or mutant PTP with various concentrations of Fumos in the mixture at 37 °C for 30 min. Absorbance at 405 nm was detected immediately after addition of varied concentrations of substrate, p-nitrophenyl phosphate (pNPP) to each corresponding well.

[1] = system: ERK1/2 activation in transfected HEK293T cells; assay: ERK activity after Shp2 or PTP1B overexpression in HEK293T; format: cell-based, human; conditions: 20 μM Fumos 24 h
Method: (§3) HEK293T, MDA-MB-231and HeLa cell lines were obtained from CRC/PUMC. Cell lines were maintained in Dulbecco’s modified Eagle’s medium supplemented with 10% fetal bovine serum. Transfections were performed in 6-well plates according to manufacturer (Invitrogen Lipofectamine LTX).Briefly, for transient transfection of HEK293T cells, subconfluent cells in 6-well plates were incubated with 2 ml of Dulbecco’s modified Eagle’s medium containing 2.5 μg of total DNA and 7.5 μl of each Lipofectamine and Plus reagent (Invitrogen) and then serum-starved in DMEM/0.1% bovine serum albumin for 18 h. After Fumos treatment for 24 h, cells were stimulated for 5 min with 20 ng/ml EGF.
Figure S2. Fumos inhibits Shp2-mediated ERK1/2 activation in human cells. […]
vectors for PTP1B and Shp2, and either untreated or treated with 20 μM Fumos for 24 h, respectively. Total cell lysates were immunoblotted with antibodies specific for […]
(1 picture or pasted object on this page, not shown here)

Shp2-Y279A = biological target: T1, Shp2-Y279A (Homo sapiens, UniProt Q06124, Y279A); assay: Surface plasmon resonance analysis, Shp2-Y279A; format: binding
T1 sequence (Q06124 1-593 Y279A): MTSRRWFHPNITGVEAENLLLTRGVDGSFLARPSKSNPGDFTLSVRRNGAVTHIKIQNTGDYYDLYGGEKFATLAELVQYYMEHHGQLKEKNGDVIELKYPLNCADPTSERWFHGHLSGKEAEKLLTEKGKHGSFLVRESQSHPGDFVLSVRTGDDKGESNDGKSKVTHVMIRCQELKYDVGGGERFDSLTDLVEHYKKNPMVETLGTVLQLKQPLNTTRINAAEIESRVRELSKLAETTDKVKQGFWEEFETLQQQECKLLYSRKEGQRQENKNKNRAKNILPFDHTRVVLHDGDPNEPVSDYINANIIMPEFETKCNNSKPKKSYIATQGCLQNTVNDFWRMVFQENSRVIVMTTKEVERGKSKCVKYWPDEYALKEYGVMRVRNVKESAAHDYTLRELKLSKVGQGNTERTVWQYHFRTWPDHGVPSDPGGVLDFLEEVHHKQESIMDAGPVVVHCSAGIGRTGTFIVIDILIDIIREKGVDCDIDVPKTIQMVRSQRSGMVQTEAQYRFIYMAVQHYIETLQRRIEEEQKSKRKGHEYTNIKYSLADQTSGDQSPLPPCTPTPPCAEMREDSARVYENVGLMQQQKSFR
Method: One small molecule (10 mM) was spotted on the 3D sensor chip. Positive and negative controls on the chip were monitored for binding kinetics to verify immobilization. All experiments were performed using Plexera’s Plex Array SPRi instrumentation, visualized using Instrument Control software (ICS) and analyzed using Plexera Data Explorer software.
Proteins were injected in the following order: Shp2 full-length protein (12 nM, 36 nM, 108 nM, 324 nM), Shp2 Y279A protein (35 nM, 70 nM,140 nM, 280 nM, 560 nM). Each protein was injected at a flow rate of 1 μl/sec. The association duration was 200 sec and dissociation duration was 300 sec. Regeneration between injections was performed with 600 μl of 10 mM glycine-HCl, pH = 2.0. The data were analyzed by Plexera Data Explorer software.

[2] = system: ERK1/2 phosphorylation in MDA-MB-231 cells; assay: EGF-induced ERK1/2 activation, Western blot, MDA-MB-231; format: cell-based, human; conditions: MDA-MB-231 (K-Ras G13D); 10-40 μM for 24 h, EGF 20 ng/ml 5 min
Source text: (§4) After centrifugation, the supernatant was collected.

[3] = system: ERK1/2 activation in HEK293T cells expressing H-RasV12; assay: RasV12-induced ERK1/2 activation in transfected HEK293T; format: cell-based, human; conditions: Fumos 20 μM or U0126 10 μM, 24 h
Method: DMSO treatment as control. […] (c) Fumos inhibits EGF-induced Ras activation.
as §3, §4

[4] = system: EGF-induced Ras activation in HEK293T cells; assay: Ras activation assay (GST-RBD pull-down), HEK293T; format: cell-based, human; conditions: Fumos 20 μM
Method: Active Ras was detected by use of the RBD of raf-1 fused to glutathione S-transferase (GST) as described previously. Cells were lysed in MLB buffer (25 mM Hepes, 150 mM NaCl, 1% Nonidet P-40, 0.25% sodium deoxycholate, 10% glycerol, 25 mM NaF, 1 mM Na3VO4, 10 mM MgCl2, 1 mM EDTA, pH 7.5) supplemented with complete EDTA-free protease inhibitor mixture. Total 500 μg cell lysate was incubated with 10–20 μg of GST-RBD bound beads(Merck) overnight at 4 °C. The beads were pelleted by centrifugation and washed three times with MLB buffer. The beads were boiled in SDS loading buffer and subjected to electrophoresis, followed by immunoblotting with an anti-Ras antibody (Santa Cruz Biotechnology).

Cdc25b = Cdc25b (Homo sapiens, UniProt P30305); assay: in vitro PTP assay (pNPP), Cdc25b; format: biochemical
Chain of Cdc25b (P30305 431-538 limits assumed): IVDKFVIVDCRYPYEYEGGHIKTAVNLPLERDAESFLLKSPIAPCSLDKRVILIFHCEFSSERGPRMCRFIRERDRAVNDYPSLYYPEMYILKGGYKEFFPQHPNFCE
Method: as §1, §2

[5] = SPR, Fumos immobilized, Shp2-Y279A injected

Chain of SHP1 (P29350 244-515 limits assumed): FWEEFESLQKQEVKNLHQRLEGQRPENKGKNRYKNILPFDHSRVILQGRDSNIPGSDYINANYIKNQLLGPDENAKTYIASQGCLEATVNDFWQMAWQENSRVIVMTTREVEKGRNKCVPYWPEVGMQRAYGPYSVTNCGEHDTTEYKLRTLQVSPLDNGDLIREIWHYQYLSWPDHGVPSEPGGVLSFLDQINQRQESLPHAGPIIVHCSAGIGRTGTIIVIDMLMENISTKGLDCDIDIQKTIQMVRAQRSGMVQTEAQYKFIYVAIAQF

CC[C@@H](C)C[C@@H](C)/C=C(C)/C=C/C=C/C=C(\C)C(=O)c1c(O)c(-c2ccc(O)cc2)cn(O)c1=O [Fumos, Fumosorinone] was tested, and the IC50 (SHP1; SHP1 PTP domain) was 34.7 ± 0.37 µM, the IC50 selective (SHP1; SHP1 relative to Shp2 PTP domain) was about 6 and the “ERK activity after Fumos treatment in cells transfected with PTP1B” value [1] was “little recovery”. For the same compound, the “ERK activity after Fumos treatment in cells transfected with Shp2” value [1] was “partially recovered”, the “affinity of Shp2-Y279A relative to Shp2-WT” value (Shp2-Y279A; SPR KD comparison) was “nine-fold less affinity” and the “Ka (association rate)” value (Shp2-Y279A; [5]) was 5.06 × 10^4 M^−1 S^−1. The Kd (Shp2-Y279A; [5]) was 0.368 µM, the “Kd (dissociation rate)” value (Shp2-Y279A; [5]) was 1.86 × 10^−2 S^−1 and the “EGF-induced ERK1/2 phosphorylation” value [2] was “the decrease was not observed”. The “RasV12-induced ERK1/2 activation” value [3] was “did not inhibit”, the “EGF-induced endogenous Ras activation” value [4] was “inhibited” and the IC50 (Cdc25b; Cdc25b PTP domain) was over 100 µM. It also gave an IC50 selective (Cdc25b; Cdc25b relative to Shp2 PTP domain) of over 16.
